Read-outs that look alike come from different tables or passages of the source.
Legend:
[1] = molecular target: T1, right artrium of guinea pig (Cavia porcellus, UniProt H0W3H1); experiment: β-blocking effect: antagonism of increase of beat rate of right atrium of guinea pig caused by isoproterenol; type: cell-based
T1 construct: beat rate of a right artrium of guinea pig; from tissue; host or cells: guinea pig right atrium
Procedure: This was evaluated in terms of the effect antagonizing an increase of beat rate of a right artrium of guinea pig caused by isoproterenol. Efficiency of blocking by the corresponding compound is expressed in pA2 value (see Van Bossum, Arch. int. Pharmacodyn. Ther. 143, 299, 1963).

[2] = system: spontaneously hypertensive rats; experiment: Antihypertensive effect on the spontaneously hypertensive rats; type: in vivo, rat; details: 30 mg/kg, single oral administration, SHR, average blood pressure by aortic cannula
Procedure: Antihypertensive effect on the spontaneously hypertensive rats Five spontaneous rats (SHR), showing more than […] of systolic blood pressure were used. After a single oral administration, antihypertensive activity of the corresponding compound was evaluated in terms of a decrease in average blood pressure measured by means of a cannula embedded in the aorta.

aorta of rat = molecular target: T2, aorta of rat (Rattus norvegicus, UniProt P23944); experiment: cell-based
T2 sequence (P23944 1-561): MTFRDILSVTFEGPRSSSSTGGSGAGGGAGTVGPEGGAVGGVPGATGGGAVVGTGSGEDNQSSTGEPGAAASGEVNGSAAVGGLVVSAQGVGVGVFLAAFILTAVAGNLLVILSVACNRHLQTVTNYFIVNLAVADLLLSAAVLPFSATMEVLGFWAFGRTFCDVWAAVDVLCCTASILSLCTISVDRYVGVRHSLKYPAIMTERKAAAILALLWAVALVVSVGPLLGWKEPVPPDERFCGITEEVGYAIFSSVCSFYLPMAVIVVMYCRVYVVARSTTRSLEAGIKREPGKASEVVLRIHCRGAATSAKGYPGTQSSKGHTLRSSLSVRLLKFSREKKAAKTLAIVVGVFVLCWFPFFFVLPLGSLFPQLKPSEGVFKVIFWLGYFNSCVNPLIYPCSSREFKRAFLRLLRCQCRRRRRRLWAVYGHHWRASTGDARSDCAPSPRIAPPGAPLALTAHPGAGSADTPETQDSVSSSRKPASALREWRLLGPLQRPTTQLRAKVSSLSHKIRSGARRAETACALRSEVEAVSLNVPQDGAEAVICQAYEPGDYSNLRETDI

[3] = Acute toxicity of active compounds (LD50); details: in vivo
Text: Beta-blocking agents hitherto known have to be given to hypertensive patients for some period before desirable effects are obtained.

[4] = clinical use; cited from earlier work
heart rate = experiment: Influence on the heart rate in unanaesthetized dogs; type: in vivo, dog; details: 10 mg/kg oral
Procedure: 4. Influence on the heart rate This was measured in dogs under unanaesthesized condition after oral administration of the corresponding compound.

[5] = pA2 vs isoproterenol, guinea pig right atrium, read-out: β-Blocking effect (pA2) (converted)
[6] = pA2 vs phenylephrine, rat aorta, read-out: α-Blocking effect (pA2) (converted)

T1 sequence (H0W3H1 1-470): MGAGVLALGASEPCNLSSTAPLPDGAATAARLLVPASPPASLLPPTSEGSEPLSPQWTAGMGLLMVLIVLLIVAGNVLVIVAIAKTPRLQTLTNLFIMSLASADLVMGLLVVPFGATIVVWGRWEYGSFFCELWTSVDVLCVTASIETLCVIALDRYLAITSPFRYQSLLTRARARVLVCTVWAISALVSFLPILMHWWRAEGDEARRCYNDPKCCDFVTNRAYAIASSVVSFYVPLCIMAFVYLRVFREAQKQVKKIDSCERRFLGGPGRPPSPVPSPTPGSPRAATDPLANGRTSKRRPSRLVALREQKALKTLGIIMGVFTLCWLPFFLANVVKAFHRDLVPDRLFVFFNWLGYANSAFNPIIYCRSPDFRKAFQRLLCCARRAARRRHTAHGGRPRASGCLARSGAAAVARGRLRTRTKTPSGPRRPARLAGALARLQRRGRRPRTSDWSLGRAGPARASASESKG

SMILES | Kb [1, 5] [nM] | Antihypertensive effect: decrease in blood pressure [2] [mm Hg] | Kb (aorta of rat; [6]) [nM] | LD50 ([3]; iv, I.V., read-out: LD50 I.V.) [mg/kg] | LD50 ([3]; po, P.O., read-out: LD50 P.O.) [mg/kg] | Kb [1] [nM] | Kb (aorta of rat) [nM] | orthostatic hypotension (in words) [4] | Influence on heart rate: change (heart rate)
CC(COc1ccc([N+](=O)[O-])cc1)NCC(O)COc1c[nH]c(=O)c2ccccc12.Cl (centres unmarked) [4-[3-{1-methyl-2-(4-nitrophenoxy)ethylamino}-2-hydroxypropoxy]isocarbostyril hydrochloride] | 37.2 | 17 | – | – | – | – | – | – | –
COc1ccc(OCC(C)NCC(O)COc2c[nH]c(=O)c3ccccc23)c(OC)c1.Cl (centres unmarked) [4-[3-{2-(2,4-dimethoxyphenoxy)-1-methylethylamino}-2-hydroxypropoxy]isocarbostyril hydrochloride] | 5.5 | 32 | 63.1 | 118 | > 2000 | – | – | – | –
CC(COc1ccc(O)cc1)NCC(O)COc1c[nH]c(=O)c2ccccc12 (centres unmarked) [4-[3-{2-(4-hydroxyphenoxy)-1-methylethylamino{-2-hydroxy-propoxy]isocarbostyril] | 2.95 | 26 | 102 | 163 | > 2000 | – | – | – | –
CC(COc1ccccc1C(N)=O)NCC(O)COc1c[nH]c(=O)c2ccccc12 (centres unmarked) [4-[3-{2-(2-carbamoylphenoxy)-1-methylethylamino}-2-hydroxypropy]isocarbostyril] | 14.8 | 10 | – | – | – | – | – | – | –
COc1ccc(OCC(C)NCC(O)COc2c[nH]c(=O)c3ccccc23)cc1.Cl (centres unmarked) [4-[3-{2-(4-methoxyphenoxy)-1-methylethylamino}-2-hydroxypropoxy]isocarbostyril hydrochloride] | 9.55 | 21 | – | 137 | > 2000 | – | – | – | –
CC(COc1ccc(N)cc1)NCC(O)COc1c[nH]c(=O)c2ccccc12.Cl (centres unmarked) [4-[3-{2-(4-aminophenoxy)-1-methylethylamino}-2-hydroxypropoxy]isocarbostyril hydrochloride] | 7.24 | 31 | – | – | – | – | – | – | –
CC(CCc1ccccc1)NCC(O)c1ccc(O)c(C(N)=O)c1 (centres unmarked) [Labetalol, reference compound] | – | 31 | – | – | – | 38 | 41.7 | serious adverse reaction | Increase
COc1ccccc1OCC(C)NCC(O)COc1c[nH]c(=O)c2ccccc12.Cl (centres unmarked) [4-[3-{2-(2-methoxyphenoxy)-1-methylethylamino}-2-hydroxypropoxy]isocarbostyril hydrochloride] | 10.7 | 35 | 19.5 | – | – | – | – | – | –
CC(COc1ccccc1)NCC(O)COc1c[nH]c(=O)c2ccccc12.Cl (centres unmarked) [4-[3-(1-methyl-2-phenoxyethyl-amino)-2-hydroxypropoxy]isocarbostyril hydrochloride] | 13.2 | 15 | 26.9 | – | – | – | – | – | –
CC(C)NCC(O)COc1cccc2ccccc12 (centres unmarked) [Propranolol, reference compound] | – | 3 | – | – | – | – | – | – | Decrease
CC(COc1ccc(N)cc1)NCC(O)COc1c[nH]c(=O)c2ccccc12 (centres unmarked) [4-[3-{2-(4-aminophenoxy)-1-methylethylamino}-2-hydroxypropoxy]isocarbostyril] | – | – | – | 77.4 | > 2000 | – | – | – | –

From US4526893A, “Isocarbostyril derivatives” (priority 1982, dated 1985)
